Laboratory results: patent US11767286B2, “Phenylpropionate compound, preparation method for same, and applications thereof” (SUZHOU PHARMAVAN CO., LTD, priority 2017, dated 2023)

Columns and labels:
[1] = test system: SD rat model of focal ischemia-reperfusion; experiment: Dose-effect relationship in SD rat model of focal ischemia-reperfusion (MCAO); type: in vivo, SD rats; conditions: given 2 h after reperfusion, mean ± standard error; for Score of Symptoms of Neurological Deficits: 48 h, modified Bederson 5-point scale; for Infarction area: evaluated after 48 h
Protocol: In this example, phenylpropionate compounds were studied for dose-effect relationship, with D-bornyl ferulate (administrated at 4.0 mg/kg) and D-tanshinol borneol ester (administrated at 4.0 mg/kg) as positive control drugs. Structures of D-bornyl ferulate (Patent Application No.: 201510243181.5) and D-tanshinol borneol ester compounds are as follows:
(§1) Trial method: A cerebral ischemia reperfusion model of middle cerebral artery occlusion (MCAO) was prepared by an internal carotid artery suture method. An animal was anesthetized with 10% chloral hydrate (3.6 mL/kg) and then fixed on an operating table in a supine position. Its skin was disinfected, and a midline incision was made on the neck. The right common carotid artery, external carotid artery, and internal carotid artery were separated, the vagus nerve was gently striped off, and the external carotid artery was ligated and cut. The common carotid artery was clamped at the proximal end. […] The nylon thread was advanced through the bifurcation of the common carotid artery into the internal carotid artery, and then was slowly inserted until there was slight resistance (about 20 mm from the bifurcation) to block all the blood supply to the middle cerebral artery. 2 h after cerebral ischemia, the nylon thread was gently pulled out to restore blood supply for reperfusion, and the neck skin was sutured and disinfected. The animal was put back in a cage and raised. During the modeling operation, animals with abnormal conditions due to anesthesia, surgery, etc. were excluded, and successfully modeled animals were randomly grouped. Schemes were set according to different trial doses, and drug treatment was given 2 h after cerebral ischemia-reperfusion. Death conditions were recorded every day after the surgery, and indicators were evaluated after 48 h. In the whole trial process, general conditions were observed, mainly including: death, coma, breathing, urine and feces traits, hair colors, mental status, vomiting and vomitus, bleeding, convulsion, spasm, etc. Abnormal animals due to unexpected factors were excluded. Finally, unblinding was conducted by a person who made blind trials.
(§2) Evaluated indicator: (1) Evaluation of symptoms of neurological deficits: The symptoms of neurological deficits were evaluated by using a modified Bederson 5-point scale. A single-blind method was used for evaluating the symptoms of neurological deficits in rats with brain trauma. That is, a trial designer marked animals in accordance with groups, and an experimenter who scored the symptoms of neurological deficits had no knowledge of how the animals were grouped. After scoring was completed, the scorer submitted scoring results for various marks to the designer, and the designer performed unblinding to obtain scores of animals in each trial group. (2) Measurement of cerebral infarction area: A method reported in the literature was used. An animal was anesthetized with 10% chloral hydrate and decapitated to collect brain. The olfactory bulb, cerebellum and lower brain stem were removed. Blood stains on the surface of the brain were rinsed with normal saline, the residual water stains on the surface were absorbed, and the brain was placed at −80° C. for 7 min. After the brain was taken out, a coronal section was immediately made at downwards and vertical to the sight intersection plane, and brain slices were made every 2 mm backwards. Brain slices were placed in a TTC (20 g/L) dye solution prepared with 0.9% normal saline, and incubated at 37° C. for 90 min. Normal brain tissues were stained deep red, and ischemic brain tissues were pale-white. After rinsed with normal saline, the brain sections were quickly arranged in order from front to back, the residual water stains on the surface were absorbed to dryness, and pictures were taken. Image analysis software was used for statistics on the pictures. […]

[2] = test system: SD rat model of focal ischemia-reperfusion; experiment: Pharmacodynamic (administration) time window in SD rat model of focal ischemia-reperfusion (MCAO); type: in vivo, SD rats; conditions: for Score of Symptoms of Neurological Deficits: 48 h, modified Bederson 5-point scale; for Infarction area: evaluated after 48 h, mean ± standard error
Protocol: In this example, Compound A was measured for a pharmacodynamic time window by a method described below.
as §1, with “to” for “to different”, “given 3 h, 4 h, and 5” for “given 2”
as §2, with “pictures. Ischemic area (white region) on the right side and total area on the right side were delineated, and a percentage of the cerebral infarction area was calculated by the following formula:” for “pictures.”
Statistical analysis: Quantitative data is expressed as mean value±standard error. […]

[3] = drug given 3 h after reperfusion
[4] = drug given 4 h after reperfusion
[5] = drug given 5 h after reperfusion

Structure (SMILES)	Score of Symptoms of Neurological Deficits ([1]; 2.0 mg/kg)	Infarction area ([1]; 2.0 mg/kg)	Score of Symptoms of Neurological Deficits ([1]; 4.0 mg/kg)	Infarction area ([1]; 4.0 mg/kg)	Score of Symptoms of Neurological Deficits ([1]; 8.0 mg/kg)	Infarction area ([1]; 8.0 mg/kg)	treatment time window ([2]; after ischemia (2 h ischemia then reperfusion))	Score of Symptoms of Neurological Deficits [2, 3]	Infarction area [2, 3]	Score of Symptoms of Neurological Deficits [2, 4]	Infarction area [2, 4]	Score of Symptoms of Neurological Deficits [2, 5]	Infarction area [2, 5]
COc1cc(CCC(=O)O[C@H]2C[C@H]3CC[C@]2(C)C3(C)C)cc(OC)c1O [Compound C]	2.45 ± 0.13	22.24 ± 2.84 %	2.18 ± 0.23	21.04 ± 2.14 %	1.98 ± 0.14	19.32 ± 3.53 %							
COc1cc(CCC(=O)O[C@H]2C[C@H]3CC[C@]2(C)C3(C)C)cc(F)c1O [Compound A]	2.05 ± 0.20	24.73 ± 2.63 %	1.94 ± 0.19	20.25 ± 2.53 %	1.75 ± 0.21	18.38 ± 2.74 %	not less than 6 h	2.04 ± 0.12	23.56 ± 2.86 %	2.13 ± 0.14	24.54 ± 2.53 %	2.42 ± 0.17	32.43 ± 2.13%
